Consider 7 compounds from US12448382B2, “Heterocyclic compounds for mediating tyrosine kinase 2 activity” (GUANGZHOU INNOCARE PHARMA TECH CO., LTD., priority 2019, dated 2025).

Assay [1] deals with IL-12-induced IFN-γ secretion in NK92 cells. In words: Inhibition of IL-12-induced IFN-γ Secretion in NK92 Cells (ELISA). The format is cell-based, human. The settings on record: Homo sapiens, 24 hours incubation, 8 concentration points, read-out: IC50 (NK92_IL12/IFNγ). The essentials:
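NK92 cells (100,000/well, IL-2-free medium) rested overnight, then treated with compound plus IL-12 for 24 h at 37 °C. Secreted IFN-γ measured in supernatant by ELISA. Inhibition normalized to unstimulated and IL-12/0.2% DMSO controls; IC50 fitted from 8 concentrations.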

For assay [2], the target named is T1, human recombinant JAK2 protein (Homo sapiens, UniProt O60674).
T1 construct: purchased Carna Biosciences 08-045
T1 sequence (O60674 826-1132 limits assumed): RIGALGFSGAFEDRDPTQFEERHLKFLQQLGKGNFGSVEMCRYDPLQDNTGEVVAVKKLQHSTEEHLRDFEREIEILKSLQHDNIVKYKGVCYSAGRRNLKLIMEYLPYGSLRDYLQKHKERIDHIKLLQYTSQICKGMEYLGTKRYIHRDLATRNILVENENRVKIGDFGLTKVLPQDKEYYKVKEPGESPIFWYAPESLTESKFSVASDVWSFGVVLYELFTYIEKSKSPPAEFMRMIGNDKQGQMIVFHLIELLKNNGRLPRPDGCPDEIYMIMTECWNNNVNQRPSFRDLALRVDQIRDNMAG
In words: JAK2 Inhibition Assay (HTRF kinase assay). As to conditions: human recombinant JAK2, 2.5 μM ATP substrate solution. The format is biochemical. The essentials:
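Recombinant human JAK2 was preincubated 15 min at room temperature with compound in buffer containing 5 mM MgCl2, 1 mM DTT and 0.01% Brij35. Substrate solution (2.5 μM ATP, 0.25 μM biotinylated TK substrate) was then added for 30 min. Phosphorylation was detected by HTRF (665/620 nm ratio; no-enzyme = 100% inhibition), and IC50 was fitted from an 8-point, 4-fold series.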
A general note: Time-resolved FRET reads energy transfer from a long-lived donor to a nearby acceptor.

The target of assay [3] is T2, human recombinant TYK2 protein (Homo sapiens, UniProt P29597).
T2 construct: purchased Carna Biosciences 08-147
T2 sequence (P29597 871-1187 limits assumed): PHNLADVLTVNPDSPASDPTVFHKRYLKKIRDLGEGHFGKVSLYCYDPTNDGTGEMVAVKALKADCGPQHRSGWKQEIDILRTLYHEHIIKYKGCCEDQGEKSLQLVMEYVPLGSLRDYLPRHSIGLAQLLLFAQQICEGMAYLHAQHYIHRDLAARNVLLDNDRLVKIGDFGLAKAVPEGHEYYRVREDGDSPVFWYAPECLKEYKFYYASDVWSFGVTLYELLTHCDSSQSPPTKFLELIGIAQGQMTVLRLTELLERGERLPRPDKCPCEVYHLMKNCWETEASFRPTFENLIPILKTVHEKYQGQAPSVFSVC
In words: TYK2 Inhibition Assay (HTRF kinase assay). Type of assay: biochemical. The settings on record: human recombinant TYK2, 11.25 μM ATP substrate solution. An outline of the steps:
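Recombinant human TYK2 was pre-incubated 15 min at room temperature with compound, then reacted for 40 min with biotinylated tyrosine-kinase substrate and ATP (substrate solution 11.25 μM ATP, 0.5 μM substrate; 5 mM MgCl2, 0.01% Brij35). Phosphorylation was read by HTRF 665/620 ratio, normalised to no-enzyme and no-compound controls, and IC50 was fitted from 8 4-fold dilutions.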

pIC50: −log10 of the molar value.

As a reminder, the IC50 is the midpoint of a concentration-inhibition curve.

In the case of `Cn1cc(Nc2ncc(Cl)c(N3C[C@]4(C)CN(C(=O)[C@@H]5CC5(F)F)C[C@]4(C)C3)n2)cn1` [Compound 22, ((3aR,6aS)-5-(5-chloro-2-((1-methyl-1H-pyrazol-4-yl)amino)pyrimidin-4-yl)-3a,6a-dimethylhexahydropyrrolo[3,4-c]pyrrol-2(1H)-yl)((S)-2,2-difluorocyclopropyl)methanone], in assay [1], the pIC50 was 6.52. For the same compound, the IC50 in assay [2] is 1.4 nM; in assay [3], 0.8 nM.
In the same order, the values of `Cn1cc(Nc2ncc(Cl)c(N3C[C@]4(C)CN(C(=O)CC#N)C[C@]4(C)C3)n2)cn1` [Compound 20, 3-((3aR,6aS)-5-(5-chloro-2-((1-methyl-1H-pyrazol-4-yl)amino)pyrimidin-4-yl)-3a,6a-dimethylhexahydropyrrolo[3,4-c]pyrrol-2(1H)-yl)-3-oxopropanenittile] are 6.63, 1.2 nM and 0.5 nM.
In the same order, the values of `C[C@]12CN(C(=O)CC#N)C[C@H]1CN(c1nc(Nc3cn[nH]c3)ncc1Cl)C2` [Compound 98, 3-((3aS,6aR)-5-(2-((1H-pyrazol-4-yl)amino)-5-chloropyrimidin-4-yl)-3a-methylhexahydropyrrolo[3,4-c]pyrrol-2(1H)-yl)-3-oxopropanenitrile] are 6.29, 0.7 nM and 0.1 nM.
As for `Cn1cc(Nc2ncc(Cl)c(N3C[C@@H]4CN(C(=O)CC(F)(F)F)C[C@]4(C)C3)n2)cn1` (racemic) [Compound 68, cis-1-(5-(5-chloro-2((1-methyl-1H-pyrazol-4-yl)amino)pyrimidin-4-yl)-3a-methylhexahydropyrrolo[3,4-c]pyrrol-2(1H)-yl)-3,3,3-trifluoropropan-1-one], in assay [1], the pIC50 was 6.48. For the same compound, the IC50 in assay [2] was 31 nM; in assay [3], 1.4 nM.
Regarding `Cc1cnc(Nc2cnn(C)c2)nc1N1C[C@@]2(C)CN(S(C)(=O)=O)C[C@@]2(C)C1` [Compound 55, 4-((3aR,6aS)-3a,6a-dimethyl-5-(methylsulfonyl)hexahydropyrrolo[3,4-c]pyrrol-2(1H)-yl)-5-methyl-N-(1-methyl-1H-pyrazol-4-yl)pyrimidin-2-amine], in assay [1], the pIC50 was 6.38. The IC50 in assay [2] was 3.7 nM; in assay [3] it was 1.7 nM.
Consider `C[C@@]12CN(C(=O)C3CC3)C[C@]1(C)CN(c1nc(Nc3cc[nH]n3)ncc1Cl)C2` [Compound 95, ((3aR,6aS)-5-(2-((1H-pyrazol-3-yl)amino)-5-chloropyrimidin-4-yl)-3a,6a-dimethylhexahydropyrrolo-[3,4-c]pyrrol-2(1H)-yl)(cyclopropyl)methanone], for which, in assay [1], the pIC50 is 5.23. Moreover, the concentration for half-maximal inhibition (IC50) was determined as 19 nM in assay [2] and 42 nM in assay [3].
As to `Cn1cc(Nc2ncc(Cl)c(N3C[C@H]4CN(C(=O)CC#N)C[C@@]4(C)C3)n2)cn1` [Compound 89, 3-((3aR,6aS)-5-(5-chloro-2-((1-methyl-1H-pyrazol-4-yl)amino)pyrimidin-4-yl)-3a-methylhexahydropyrrolo[3,4-c]pyrrol-2(1H)-yl)-3-oxopropanenitrile], in assay [1], the pIC50 is 6.14. The IC50 in assay [2] stood at 4.5 nM; in assay [3], 2.6 nM.
